{
  "source": "the kinase profiling compilation of Christmann-Franck et al. (2016)",
  "assay_in_all_cases": "radiometric filter-binding kinase assay",
  "key": {"[1]": {"target": "MAPK13 (human) (UniProt O15264)"}, "[2]": {"target": "SRC (human) (UniProt P12931)"}, "[3]": {"target": "MKNK1 (human) (UniProt Q9BUB5)"}, "[4]": {"target": "MAP2K2 (human) (UniProt P36507)", "details": "compound 10.0 µM"}, "[5]": {"target": "DAPK1 (human) (UniProt P53355)", "details": "compound 10.0 µM"}, "[6]": {"target": "EEF2K (human) (UniProt O00418)"}, "[7]": {"test_system": "ROCK2 (rat)", "details": "accession and sequence are those of the human protein"}, "[8]": {"target": "CHEK2 (human) (UniProt O96017)", "sequence (O96017 whole entry, looked up)": "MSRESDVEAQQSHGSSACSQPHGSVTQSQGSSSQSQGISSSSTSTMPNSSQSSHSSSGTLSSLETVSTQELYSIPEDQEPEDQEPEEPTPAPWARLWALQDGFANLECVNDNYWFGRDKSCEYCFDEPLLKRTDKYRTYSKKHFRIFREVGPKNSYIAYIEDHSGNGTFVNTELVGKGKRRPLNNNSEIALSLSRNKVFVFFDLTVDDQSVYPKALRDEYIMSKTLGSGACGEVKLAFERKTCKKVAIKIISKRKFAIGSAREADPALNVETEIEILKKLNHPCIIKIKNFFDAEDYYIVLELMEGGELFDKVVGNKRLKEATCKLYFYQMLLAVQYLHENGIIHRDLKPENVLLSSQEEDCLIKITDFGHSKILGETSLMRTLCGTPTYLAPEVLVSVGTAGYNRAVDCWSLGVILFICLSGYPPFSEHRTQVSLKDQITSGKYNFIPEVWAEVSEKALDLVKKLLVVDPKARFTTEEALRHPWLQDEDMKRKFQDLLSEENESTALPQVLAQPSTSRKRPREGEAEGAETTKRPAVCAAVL"}, "[9]": {"target": "MINK1 (human) (UniProt Q8N4C8)", "details": "compound 10.0 µM"}, "[10]": {"target": "CDK2 CCNA2 (human) (UniProt P20248+P24941)"}, "[11]": {"target": "MARK4 (human) (UniProt Q96L34)", "details": "compound 10.0 µM"}, "[12]": {"target": "GSK3B (human) (UniProt P49841)", "sequence (P49841 whole entry, looked up)": "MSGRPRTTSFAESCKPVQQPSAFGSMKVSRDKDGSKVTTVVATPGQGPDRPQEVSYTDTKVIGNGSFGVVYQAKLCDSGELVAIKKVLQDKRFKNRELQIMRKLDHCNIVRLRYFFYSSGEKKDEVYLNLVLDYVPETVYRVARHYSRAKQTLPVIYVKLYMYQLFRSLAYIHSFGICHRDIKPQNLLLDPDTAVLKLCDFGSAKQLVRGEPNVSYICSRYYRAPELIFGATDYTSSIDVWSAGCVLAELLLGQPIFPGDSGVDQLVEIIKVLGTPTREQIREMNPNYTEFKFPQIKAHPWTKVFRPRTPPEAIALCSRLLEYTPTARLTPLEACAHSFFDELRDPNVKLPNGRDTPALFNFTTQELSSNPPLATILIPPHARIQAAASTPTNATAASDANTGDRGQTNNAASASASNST"}, "[13]": {"test_system": "LCK (mouse)", "details": "accession and sequence are those of the human protein"}, "[14]": {"target": "PRKCZ (human) (UniProt Q05513)"}, "[15]": {"target": "MYLK (human) (UniProt Q15746)", "sequence (Q15746 whole entry, looked up)": "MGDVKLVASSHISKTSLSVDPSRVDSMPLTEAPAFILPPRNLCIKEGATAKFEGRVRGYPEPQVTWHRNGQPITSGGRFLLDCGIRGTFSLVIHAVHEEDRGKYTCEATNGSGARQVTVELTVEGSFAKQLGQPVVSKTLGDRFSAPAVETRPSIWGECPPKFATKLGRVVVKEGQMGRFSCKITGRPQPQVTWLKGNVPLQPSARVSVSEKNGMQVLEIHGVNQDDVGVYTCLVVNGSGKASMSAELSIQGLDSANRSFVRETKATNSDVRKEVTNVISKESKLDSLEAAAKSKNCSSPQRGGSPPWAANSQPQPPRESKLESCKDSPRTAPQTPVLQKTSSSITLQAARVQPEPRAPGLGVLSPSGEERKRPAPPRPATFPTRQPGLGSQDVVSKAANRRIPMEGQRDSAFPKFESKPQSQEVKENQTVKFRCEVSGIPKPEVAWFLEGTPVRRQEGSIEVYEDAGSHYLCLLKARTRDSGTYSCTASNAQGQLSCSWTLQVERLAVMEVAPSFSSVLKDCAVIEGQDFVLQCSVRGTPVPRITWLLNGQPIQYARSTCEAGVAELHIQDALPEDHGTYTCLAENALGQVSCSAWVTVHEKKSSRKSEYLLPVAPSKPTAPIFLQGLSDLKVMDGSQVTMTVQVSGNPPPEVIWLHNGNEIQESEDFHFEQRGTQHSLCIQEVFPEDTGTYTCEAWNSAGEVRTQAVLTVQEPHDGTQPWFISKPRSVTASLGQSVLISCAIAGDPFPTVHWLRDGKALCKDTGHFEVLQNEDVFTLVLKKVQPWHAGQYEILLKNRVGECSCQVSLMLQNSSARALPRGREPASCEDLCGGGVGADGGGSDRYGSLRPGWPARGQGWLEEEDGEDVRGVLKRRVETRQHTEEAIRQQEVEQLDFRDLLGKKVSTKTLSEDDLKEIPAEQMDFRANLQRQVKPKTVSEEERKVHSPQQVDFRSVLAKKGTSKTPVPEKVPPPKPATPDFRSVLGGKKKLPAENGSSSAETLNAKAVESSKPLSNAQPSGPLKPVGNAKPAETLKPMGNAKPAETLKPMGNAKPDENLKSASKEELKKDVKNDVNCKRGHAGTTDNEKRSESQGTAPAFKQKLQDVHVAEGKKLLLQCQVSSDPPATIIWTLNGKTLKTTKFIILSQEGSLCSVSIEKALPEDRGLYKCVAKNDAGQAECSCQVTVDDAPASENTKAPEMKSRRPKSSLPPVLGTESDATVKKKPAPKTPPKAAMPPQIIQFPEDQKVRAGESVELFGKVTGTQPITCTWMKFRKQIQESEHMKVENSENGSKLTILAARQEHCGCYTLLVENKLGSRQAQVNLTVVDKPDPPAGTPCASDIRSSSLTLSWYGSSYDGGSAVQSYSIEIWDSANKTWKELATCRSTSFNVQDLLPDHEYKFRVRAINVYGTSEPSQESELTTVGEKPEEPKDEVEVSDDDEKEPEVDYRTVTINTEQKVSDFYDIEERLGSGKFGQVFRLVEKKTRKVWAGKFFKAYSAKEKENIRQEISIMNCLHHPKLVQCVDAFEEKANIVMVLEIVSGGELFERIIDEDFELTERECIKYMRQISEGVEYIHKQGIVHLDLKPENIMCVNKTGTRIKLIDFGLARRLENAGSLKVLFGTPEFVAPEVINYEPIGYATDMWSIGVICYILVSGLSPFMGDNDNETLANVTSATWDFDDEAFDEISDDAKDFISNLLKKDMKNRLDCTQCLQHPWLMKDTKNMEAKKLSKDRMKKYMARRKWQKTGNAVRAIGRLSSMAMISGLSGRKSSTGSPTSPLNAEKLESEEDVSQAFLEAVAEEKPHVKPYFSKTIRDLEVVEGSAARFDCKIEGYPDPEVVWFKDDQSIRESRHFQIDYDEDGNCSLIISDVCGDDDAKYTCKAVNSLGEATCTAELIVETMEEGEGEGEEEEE"}, "[16]": {"target": "RPS6KA1 KD1 KD2 (human) (UniProt Q15418)"}, "[17]": {"target": "CSNK2A1 (human) (UniProt P68400)"}, "[18]": {"target": "IKBKB (human) (UniProt O14920)", "sequence (O14920 whole entry, looked up)": "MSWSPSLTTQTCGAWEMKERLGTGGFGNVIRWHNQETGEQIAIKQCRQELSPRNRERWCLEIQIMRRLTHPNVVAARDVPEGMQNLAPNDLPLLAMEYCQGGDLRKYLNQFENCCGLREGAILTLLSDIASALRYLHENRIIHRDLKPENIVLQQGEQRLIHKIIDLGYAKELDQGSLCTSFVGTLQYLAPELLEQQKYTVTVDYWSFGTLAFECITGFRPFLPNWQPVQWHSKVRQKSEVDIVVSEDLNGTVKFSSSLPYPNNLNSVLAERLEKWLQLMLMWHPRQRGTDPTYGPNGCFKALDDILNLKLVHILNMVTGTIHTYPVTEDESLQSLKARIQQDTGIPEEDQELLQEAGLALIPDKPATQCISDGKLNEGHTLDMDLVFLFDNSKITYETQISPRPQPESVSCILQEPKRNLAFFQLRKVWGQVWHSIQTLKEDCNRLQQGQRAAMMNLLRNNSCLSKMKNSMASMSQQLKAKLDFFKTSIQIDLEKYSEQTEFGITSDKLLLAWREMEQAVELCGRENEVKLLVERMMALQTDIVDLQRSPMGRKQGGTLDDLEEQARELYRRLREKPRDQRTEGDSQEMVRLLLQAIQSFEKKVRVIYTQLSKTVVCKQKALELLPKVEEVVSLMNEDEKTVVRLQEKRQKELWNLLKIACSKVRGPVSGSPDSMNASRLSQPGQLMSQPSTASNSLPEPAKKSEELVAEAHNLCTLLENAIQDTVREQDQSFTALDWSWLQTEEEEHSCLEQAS"}, "[19]": {"target": "MAPKAPK3 (human) (UniProt Q16644)", "sequence (Q16644 whole entry, looked up)": "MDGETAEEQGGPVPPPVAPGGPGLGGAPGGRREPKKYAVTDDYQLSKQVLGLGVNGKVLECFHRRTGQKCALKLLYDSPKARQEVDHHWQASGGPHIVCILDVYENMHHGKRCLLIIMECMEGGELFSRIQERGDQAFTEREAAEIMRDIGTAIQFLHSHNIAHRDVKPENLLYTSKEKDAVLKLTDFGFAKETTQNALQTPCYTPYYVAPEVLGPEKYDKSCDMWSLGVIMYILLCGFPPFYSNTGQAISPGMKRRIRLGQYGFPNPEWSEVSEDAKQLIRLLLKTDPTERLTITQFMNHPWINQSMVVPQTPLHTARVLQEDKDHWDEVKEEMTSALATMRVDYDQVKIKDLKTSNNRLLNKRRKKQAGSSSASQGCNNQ"}, "[20]": {"target": "TTK (human) (UniProt P33981)", "details": "compound 10.0 µM"}, "[21]": {"test_system": "PRKAA1 or PRKAA2 (rat)", "details": "accession and sequence are those of the human protein"}, "[22]": {"target": "MKNK2 (human) (UniProt Q9HBH9)"}, "[23]": {"target": "AURKB (human) (UniProt Q96GD4)"}, "[24]": {"target": "PHKG1 (human) (UniProt Q16816)", "sequence (Q16816 whole entry, looked up)": "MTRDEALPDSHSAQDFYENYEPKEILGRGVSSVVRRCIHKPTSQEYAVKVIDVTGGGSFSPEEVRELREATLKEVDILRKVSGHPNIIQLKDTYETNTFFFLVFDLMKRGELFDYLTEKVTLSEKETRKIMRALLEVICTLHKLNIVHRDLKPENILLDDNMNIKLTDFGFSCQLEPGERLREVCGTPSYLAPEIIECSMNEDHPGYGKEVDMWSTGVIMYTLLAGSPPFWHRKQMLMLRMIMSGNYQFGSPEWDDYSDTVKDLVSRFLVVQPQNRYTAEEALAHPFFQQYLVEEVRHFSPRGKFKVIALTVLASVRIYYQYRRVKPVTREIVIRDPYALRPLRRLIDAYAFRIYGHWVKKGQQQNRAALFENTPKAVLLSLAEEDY"}, "[25]": {"target": "MAPK1 (human) (UniProt P28482)"}, "[26]": {"target": "FGFR1 (human) (UniProt P11362)", "details": "compound 10.0 µM"}, "[27]": {"target": "ERBB4 (human) (UniProt Q15303)", "details": "compound 10.0 µM"}, "[28]": {"target": "CSK (human) (UniProt P41240)"}, "[29]": {"target": "INSRR (human) (UniProt P14616)", "details": "compound 10.0 µM"}, "[30]": {"target": "EPHB3 (human) (UniProt P54753)", "details": "compound 10.0 µM"}, "[31]": {"target": "MELK (human) (UniProt Q14680)", "sequence (Q14680 whole entry, looked up)": "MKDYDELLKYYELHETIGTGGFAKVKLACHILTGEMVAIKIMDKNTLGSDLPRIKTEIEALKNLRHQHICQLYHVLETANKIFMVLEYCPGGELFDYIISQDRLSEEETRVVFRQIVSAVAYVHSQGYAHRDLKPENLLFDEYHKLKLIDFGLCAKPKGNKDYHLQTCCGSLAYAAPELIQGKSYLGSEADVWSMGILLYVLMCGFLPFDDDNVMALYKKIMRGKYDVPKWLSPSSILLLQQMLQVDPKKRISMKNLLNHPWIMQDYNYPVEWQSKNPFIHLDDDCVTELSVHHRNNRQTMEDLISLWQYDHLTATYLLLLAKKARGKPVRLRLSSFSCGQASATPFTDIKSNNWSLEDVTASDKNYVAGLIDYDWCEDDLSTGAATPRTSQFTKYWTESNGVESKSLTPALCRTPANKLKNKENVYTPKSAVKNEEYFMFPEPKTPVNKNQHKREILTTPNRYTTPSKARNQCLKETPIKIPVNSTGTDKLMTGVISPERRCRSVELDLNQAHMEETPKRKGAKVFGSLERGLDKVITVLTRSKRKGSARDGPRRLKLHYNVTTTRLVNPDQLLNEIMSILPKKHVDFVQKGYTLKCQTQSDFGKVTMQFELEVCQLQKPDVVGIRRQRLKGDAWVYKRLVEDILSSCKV"}, "[32]": {"target": "NTRK1 (human) (UniProt P04629)", "details": "compound 10.0 µM"}, "[33]": {"target": "PRKACA (human) (UniProt P17612)"}, "[34]": {"target": "MAP3K9 (human) (UniProt P80192)", "details": "compound 10.0 µM"}, "[35]": {"target": "STK11 CAB39 STRADA (human) (UniProt Q9Y376+Q7RTN6+Q15831)", "details": "compound 10.0 µM"}},
  "data": [
    {"compound": "Oc1ccc(/C=C/c2cc(O)cc(O)c2)cc1", "values": [
      {"measurement": "residual activity", "setting": "[1]; compound 1.0 µM", "result": 95, "unit": "%"},
      {"measurement": "residual activity", "setting": "[1]; compound 10.0 µM", "result": 91, "unit": "%"},
      {"measurement": "residual activity", "setting": "[1]; compound 50.0 µM", "result": 72, "unit": "%"},
      {"measurement": "residual activity", "setting": "[2]; compound 1.0 µM", "result": 108, "unit": "%"},
      {"measurement": "residual activity", "setting": "[2]; compound 10.0 µM", "result": 81, "unit": "%"},
      {"measurement": "residual activity", "setting": "[2]; compound 50.0 µM", "result": 47, "unit": "%"},
      {"measurement": "residual activity", "setting": "[3]; compound 1.0 µM", "result": 102, "unit": "%"},
      {"measurement": "residual activity", "setting": "[3]; compound 10.0 µM", "result": 66, "unit": "%"},
      {"measurement": "residual activity", "setting": "[3]; compound 50.0 µM", "result": 125, "unit": "%"},
      {"measurement": "residual activity", "setting": "[4]", "result": 91, "unit": "%"},
      {"measurement": "residual activity", "setting": "[5]", "result": 62, "unit": "%"},
      {"measurement": "residual activity", "setting": "[6]; compound 1.0 µM", "result": 95, "unit": "%"},
      {"measurement": "residual activity", "setting": "[6]; compound 10.0 µM", "result": 69, "unit": "%"},
      {"measurement": "residual activity", "setting": "[6]; compound 50.0 µM", "result": 87, "unit": "%"},
      {"measurement": "residual activity", "setting": "[7]; compound 1.0 µM", "result": 125, "unit": "%"},
      {"measurement": "residual activity", "setting": "[7]; compound 10.0 µM", "result": 83, "unit": "%"},
      {"measurement": "residual activity", "setting": "[7]; compound 50.0 µM", "result": 21, "unit": "%"},
      {"measurement": "residual activity", "setting": "[8]; compound 1.0 µM", "result": 84, "unit": "%"},
      {"measurement": "residual activity", "setting": "[8]; compound 10.0 µM", "result": 79, "unit": "%"},
      {"measurement": "residual activity", "setting": "[8]; compound 50.0 µM", "result": 14, "unit": "%"},
      {"measurement": "residual activity", "setting": "[9]", "result": 66, "unit": "%"},
      {"measurement": "residual activity", "setting": "[10]; compound 1.0 µM", "result": 103, "unit": "%"},
      {"measurement": "residual activity", "setting": "[10]; compound 10.0 µM", "result": 59, "unit": "%"},
      {"measurement": "residual activity", "setting": "[10]; compound 50.0 µM", "result": 34, "unit": "%"},
      {"measurement": "residual activity", "setting": "[11]", "result": 99, "unit": "%"},
      {"measurement": "residual activity", "setting": "[12]; compound 1.0 µM", "result": 100, "unit": "%"},
      {"measurement": "residual activity", "setting": "[12]; compound 10.0 µM", "result": 80, "unit": "%"},
      {"measurement": "residual activity", "setting": "[12]; compound 50.0 µM", "result": 37, "unit": "%"},
      {"measurement": "residual activity", "setting": "[13]; compound 1.0 µM", "result": 115, "unit": "%"},
      {"measurement": "residual activity", "setting": "[13]; compound 10.0 µM", "result": 97, "unit": "%"},
      {"measurement": "residual activity", "setting": "[13]; compound 50.0 µM", "result": 59, "unit": "%"},
      {"measurement": "residual activity", "setting": "[14]; compound 1.0 µM", "result": 128, "unit": "%"},
      {"measurement": "residual activity", "setting": "[14]; compound 10.0 µM", "result": 105, "unit": "%"},
      {"measurement": "residual activity", "setting": "[14]; compound 50.0 µM", "result": 99, "unit": "%"},
      {"measurement": "residual activity", "setting": "[15]; compound 1.0 µM", "result": 78, "unit": "%"},
      {"measurement": "residual activity", "setting": "[15]; compound 10.0 µM", "result": 63, "unit": "%"},
      {"measurement": "residual activity", "setting": "[15]; compound 50.0 µM", "result": 15, "unit": "%"},
      {"measurement": "residual activity", "setting": "[16]; compound 1.0 µM", "result": 77, "unit": "%"},
      {"measurement": "residual activity", "setting": "[16]; compound 10.0 µM", "result": 63, "unit": "%"},
      {"measurement": "residual activity", "setting": "[16]; compound 50.0 µM", "result": 15, "unit": "%"},
      {"measurement": "residual activity", "setting": "[17]; compound 1.0 µM", "result": 101, "unit": "%"},
      {"measurement": "residual activity", "setting": "[17]; compound 10.0 µM", "result": 82, "unit": "%"},
      {"measurement": "residual activity", "setting": "[17]; compound 50.0 µM", "result": 49, "unit": "%"},
      {"measurement": "residual activity", "setting": "[18]; compound 1.0 µM", "result": 99, "unit": "%"},
      {"measurement": "residual activity", "setting": "[18]; compound 10.0 µM", "result": 70, "unit": "%"},
      {"measurement": "residual activity", "setting": "[18]; compound 50.0 µM", "result": 46, "unit": "%"},
      {"measurement": "residual activity", "setting": "[19]; compound 1.0 µM", "result": 121, "unit": "%"},
      {"measurement": "residual activity", "setting": "[19]; compound 10.0 µM", "result": 64, "unit": "%"},
      {"measurement": "residual activity", "setting": "[19]; compound 50.0 µM", "result": 97, "unit": "%"},
      {"measurement": "residual activity", "setting": "[20]", "result": 83, "unit": "%"},
      {"measurement": "residual activity", "setting": "[21]; compound 1.0 µM", "result": 103, "unit": "%"},
      {"measurement": "residual activity", "setting": "[21]; compound 10.0 µM", "result": 73, "unit": "%"},
      {"measurement": "residual activity", "setting": "[21]; compound 50.0 µM", "result": 16, "unit": "%"},
      {"measurement": "residual activity", "setting": "[22]; compound 1.0 µM", "result": 74, "unit": "%"},
      {"measurement": "residual activity", "setting": "[22]; compound 10.0 µM", "result": 96, "unit": "%"},
      {"measurement": "residual activity", "setting": "[22]; compound 50.0 µM", "result": 34, "unit": "%"},
      {"measurement": "residual activity", "setting": "[23]; compound 1.0 µM", "result": 97, "unit": "%"},
      {"measurement": "residual activity", "setting": "[23]; compound 10.0 µM", "result": 62, "unit": "%"},
      {"measurement": "residual activity", "setting": "[23]; compound 50.0 µM", "result": 22, "unit": "%"},
      {"measurement": "residual activity", "setting": "[24]; compound 1.0 µM", "result": 58, "unit": "%"},
      {"measurement": "residual activity", "setting": "[24]; compound 10.0 µM", "result": 21, "unit": "%"},
      {"measurement": "residual activity", "setting": "[24]; compound 50.0 µM", "result": 23, "unit": "%"},
      {"measurement": "residual activity", "setting": "[25]; compound 1.0 µM", "result": 102, "unit": "%"},
      {"measurement": "residual activity", "setting": "[25]; compound 10.0 µM", "result": 79, "unit": "%"},
      {"measurement": "residual activity", "setting": "[25]; compound 50.0 µM", "result": 100, "unit": "%"},
      {"measurement": "residual activity", "setting": "[26]", "result": 85, "unit": "%"},
      {"measurement": "residual activity", "setting": "[27]", "result": 59, "unit": "%"},
      {"measurement": "residual activity", "setting": "[28]; compound 1.0 µM", "result": 102, "unit": "%"},
      {"measurement": "residual activity", "setting": "[28]; compound 10.0 µM", "result": 87, "unit": "%"},
      {"measurement": "residual activity", "setting": "[28]; compound 50.0 µM", "result": 68, "unit": "%"},
      {"measurement": "residual activity", "setting": "[29]", "result": 62, "unit": "%"},
      {"measurement": "residual activity", "setting": "[30]", "result": 88, "unit": "%"},
      {"measurement": "residual activity", "setting": "[31]; compound 1.0 µM", "result": 49, "unit": "%"},
      {"measurement": "residual activity", "setting": "[31]; compound 10.0 µM", "result": 50, "unit": "%"},
      {"measurement": "residual activity", "setting": "[31]; compound 50.0 µM", "result": 8, "unit": "%"},
      {"measurement": "residual activity", "setting": "[32]", "result": 67, "unit": "%"},
      {"measurement": "residual activity", "setting": "[33]; compound 1.0 µM", "result": 106, "unit": "%"},
      {"measurement": "residual activity", "setting": "[33]; compound 10.0 µM", "result": 101, "unit": "%"},
      {"measurement": "residual activity", "setting": "[33]; compound 50.0 µM", "result": 91, "unit": "%"},
      {"measurement": "residual activity", "setting": "[34]", "result": 44, "unit": "%"},
      {"measurement": "residual activity", "setting": "[35]", "result": 69, "unit": "%"}
    ]}
  ]
}
